A short description of data set [1]: in vivo. Conditions: Sprague Dawley, rat. Also on record: species or system Sprague Dawley rats. The method, then: (§1) To determine the in vivo pharmacokinetic profiles, the compounds were formulated with 11% captisol and then administered iv, ip, sc and po into Sprague Dawley rats or iv and sc into mice or cynomolgus monkeys, respectively. Blood samples were collected before dosing and 0.083 h, 0.25 h, 0.5 h, 1 h, 2 h, 4 h, 6 h, 8 h, 12 h and 24 h after dosing. Blood samples were collected in tubes containing K2EDTA. Plasma was isolated from the blood samples by centrifugation of the blood samples at 2400 × g for 5 min at 4°C. Plasma samples were measured using LC-MS/MS (Waters ACQUITY UPLC and TQ 6500+) to determine the concentration of compounds. The data was analyzed using WinNonlin 7.0 to calculate the PK parameters such as AUC0-t, AUC0-∞, MRT0-∞, Cmax, Tmax, t1/2 and F.

Data set [2] in a line: in vivo. Details: species or system cynomolgus monkeys. Particulars: cynomolgus, cynomolgus monkey, sc, 1 mg/kg. The method, then:
as §1

The target in another data set is T1, CYP 2C19 (Homo sapiens, UniProt P33261).
T1 construct: using human liver microsomes (BD Gentest); tissue BD Gentest; host or cells: human liver microsomes
Description: CYP inhibition assay in human liver microsomes. The data set is classed as in vitro ADME. The method, then:
(§2) CYP inhibition assay was conducted to evaluate the inhibitive potential of the compounds on CYP 1A2, 2C9, 2C19, 2D6 and 3A4 using human liver microsomes (BD Gentest). Curve-fitting was performed to calculate IC50 using a Sigmoidal (non-linear) dose-response model using GraphPad Prism (GraphPad Software Inc.).

A further data set deals with T2, CYP 2C9 (Homo sapiens, UniProt P11712).
T2 construct: using human liver microsomes (BD Gentest); tissue BD Gentest; host or cells: human liver microsomes
Description: CYP inhibition assay in human liver microsomes. The data set is classed as in vitro ADME. The method, then:
as §2
(In general: Liver microsomes are vesicles of endoplasmic reticulum, rich in cytochrome P450 enzymes.)

A further data set concerns the target T3, CYP 1A2 (Homo sapiens, UniProt P05177).
T3 construct: using human liver microsomes (BD Gentest); tissue BD Gentest; host or cells: human liver microsomes
T3 sequence (P05177 1-516): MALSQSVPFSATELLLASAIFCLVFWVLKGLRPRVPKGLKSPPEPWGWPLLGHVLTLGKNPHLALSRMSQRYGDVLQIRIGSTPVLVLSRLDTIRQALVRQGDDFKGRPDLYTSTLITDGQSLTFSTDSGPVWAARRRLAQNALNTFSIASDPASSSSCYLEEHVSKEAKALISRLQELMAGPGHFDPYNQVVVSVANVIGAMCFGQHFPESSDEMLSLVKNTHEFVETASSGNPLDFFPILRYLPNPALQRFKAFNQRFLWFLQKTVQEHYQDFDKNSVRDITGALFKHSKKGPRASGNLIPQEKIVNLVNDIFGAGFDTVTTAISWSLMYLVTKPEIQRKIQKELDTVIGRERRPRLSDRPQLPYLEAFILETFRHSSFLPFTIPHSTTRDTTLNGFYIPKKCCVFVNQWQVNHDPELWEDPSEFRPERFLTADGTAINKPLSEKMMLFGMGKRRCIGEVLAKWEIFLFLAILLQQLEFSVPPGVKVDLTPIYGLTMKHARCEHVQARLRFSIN
Kind of data set: CYP inhibition assay in human liver microsomes. The data set is classed as in vitro ADME. The method, then:
as §2

The target in a further data set is T4, CYP 3A4 (Homo sapiens, UniProt P08684).
T4 construct: using human liver microsomes (BD Gentest); tissue BD Gentest; host or cells: human liver microsomes
Description: CYP inhibition assay in human liver microsomes. Type of data set: in vitro ADME. As to the method: as §2

In the next data set the target is T5, CYP 2D6 (Homo sapiens, UniProt P10635).
T5 construct: using human liver microsomes (BD Gentest); tissue BD Gentest; host or cells: human liver microsomes
Kind of data set: CYP inhibition assay in human liver microsomes. Type of data set: in vitro ADME. As to the method: as §2

A further data set deals with T6, hTLR4 (Homo sapiens, UniProt O00206+Q9Y6Y9).
T6 construct: host or cells: HEK-Blue hTLR4
Description: HEK-Blue hTLR4 SEAP reporter agonist assay. The data set is classed as cell-based. Particulars: HEK-Blue hTLR4 cells, highest concentration 50 μM. From the text: (§3) HEK-Blue™ hTLR4, 7, 8 and 9 cell lines were purchased from InvivoGen (Hong Kong). The cells express the human TLR gene and NF-κB/AP-1-inducible SEAP (secreted embryonic alkaline phosphatase) reporter gene. SEAP levels produced upon TLR stimulation can be determined by QUANTI-Blue™. In the cell-based assay, the main reagents used were QUANTI-Blue™ (InvivoGen) and ATPlite 1 Step (Perkin Elmer). The main instruments used were the microplate reader SpectraMax 340PC (Molecular Device) and Envision (Perkin Elmer). Motolimod and DN052 were synthesized in house. […] The compounds were in 10 mM stock solution in DMSO and stored at − 20°C. The compounds were serially diluted in the concentration range from 0.5 nM to 15 μM (up to 50 μM in the hTLR4, hTLR7 and hTLR9 assays) and added to 96-well plates. DMSO was used as the negative control. LPS-EK, R848, motolimod and ODN2006 were used as the positive control for TLR4, 7, 8 and 9, respectively. The cells were cultured and treated with the compounds at 37°C, 5%CO2 for 24 h. […] After 1.5 h of incubation, the optical density was measured using the spectrophotometer at 650 nm in the microplate reader of SpectraMax 340PC. The cell viability of each well was determined using ATPlite 1 Step following the manufacturer’s instruction. The luminescence signal in each well of plates was measured in the microplate reader of Envision.

The nature of data set [3]: Cell viability (ATPlite 1 Step) cytotoxicity assay. The data set is classed as cell-based. Particulars: human, HEK-Blue hTLR7 and hTLR8 cells.
Source text: as §3
(Cellular ATP, detected with luciferase, serves as a proxy for viable cell number.)

As usually defined, the bioavailability is the share of a dose that reaches the circulation, judged against a reference dose that is usually intravenous. Lower therefore signals little systemic uptake. In general, Vd refers to a proportionality between amount in the body and measured concentration, not a real space. Lower therefore signals little distribution into tissue. As usually defined, the clearance is the volume of plasma or blood freed of the substance per unit of time. Read a low clearance as inefficient removal. For orientation: AUC(0-inf) means the area under the concentration-time curve extrapolated to infinity. Usually AUC(0-t) stands for the area under the concentration-time curve up to a stated or last time point. Lower therefore signals less exposure. The Cmax is the maximum level reached in the sampled fluid or tissue. In general, Tmax refers to the time at which the peak concentration occurs. As a reminder, the half-life is how long it takes for the measured level to halve. High values mean slow decline, low ones rapid decline. Usually MRT inf stands for the average time that molecules of a dose stay in the body. The IC50 is the concentration at which inhibition is half-maximal. Low values mean greater potency in that assay, high ones weaker potency in that assay. By EC50 is commonly meant the concentration that produces a half-maximal response. Low values mean greater potency, high ones weaker potency. As usually defined, the CC50 is the concentration giving 50% cytotoxicity.

T6 sequence (O00206 24-839): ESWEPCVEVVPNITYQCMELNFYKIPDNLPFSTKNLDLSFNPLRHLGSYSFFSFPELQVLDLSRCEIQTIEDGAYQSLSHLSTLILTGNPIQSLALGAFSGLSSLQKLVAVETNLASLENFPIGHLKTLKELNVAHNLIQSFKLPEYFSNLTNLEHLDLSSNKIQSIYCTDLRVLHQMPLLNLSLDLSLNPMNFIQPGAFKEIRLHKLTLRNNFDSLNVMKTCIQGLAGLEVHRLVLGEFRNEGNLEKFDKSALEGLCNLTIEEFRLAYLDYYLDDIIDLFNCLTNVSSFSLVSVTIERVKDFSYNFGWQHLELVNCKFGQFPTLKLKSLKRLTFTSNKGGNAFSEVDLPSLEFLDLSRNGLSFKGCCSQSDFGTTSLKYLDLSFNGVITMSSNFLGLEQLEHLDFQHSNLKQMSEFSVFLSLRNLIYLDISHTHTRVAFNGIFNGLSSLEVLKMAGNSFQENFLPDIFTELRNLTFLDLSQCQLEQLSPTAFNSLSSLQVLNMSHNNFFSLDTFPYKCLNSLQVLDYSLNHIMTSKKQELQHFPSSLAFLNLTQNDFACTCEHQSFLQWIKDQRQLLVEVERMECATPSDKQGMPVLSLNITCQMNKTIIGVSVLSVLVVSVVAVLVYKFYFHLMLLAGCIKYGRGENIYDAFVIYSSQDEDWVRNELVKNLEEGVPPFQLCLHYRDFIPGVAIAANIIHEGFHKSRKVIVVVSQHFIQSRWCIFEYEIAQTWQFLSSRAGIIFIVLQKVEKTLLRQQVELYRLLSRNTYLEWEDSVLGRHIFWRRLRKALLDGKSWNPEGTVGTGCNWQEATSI
T6 sequence (Q9Y6Y9 17-160 limits assumed): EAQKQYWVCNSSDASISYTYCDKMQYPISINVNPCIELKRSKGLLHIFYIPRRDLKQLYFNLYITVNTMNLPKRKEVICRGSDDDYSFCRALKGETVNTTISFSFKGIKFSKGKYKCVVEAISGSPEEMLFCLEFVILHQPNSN
T1 sequence (P33261 whole entry): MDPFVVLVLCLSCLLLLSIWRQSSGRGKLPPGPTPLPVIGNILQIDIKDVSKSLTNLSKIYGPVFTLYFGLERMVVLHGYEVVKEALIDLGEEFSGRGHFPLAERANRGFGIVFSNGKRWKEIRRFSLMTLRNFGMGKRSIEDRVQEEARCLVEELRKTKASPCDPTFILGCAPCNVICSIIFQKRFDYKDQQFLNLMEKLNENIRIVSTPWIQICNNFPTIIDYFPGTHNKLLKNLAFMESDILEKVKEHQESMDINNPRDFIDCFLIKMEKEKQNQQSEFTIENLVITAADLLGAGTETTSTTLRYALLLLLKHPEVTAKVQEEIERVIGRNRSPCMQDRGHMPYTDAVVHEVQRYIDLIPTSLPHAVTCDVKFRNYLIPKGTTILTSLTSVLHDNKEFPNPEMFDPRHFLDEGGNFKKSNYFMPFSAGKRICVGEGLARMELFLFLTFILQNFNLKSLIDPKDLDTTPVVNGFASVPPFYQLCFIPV
T2 sequence (P11712 whole entry): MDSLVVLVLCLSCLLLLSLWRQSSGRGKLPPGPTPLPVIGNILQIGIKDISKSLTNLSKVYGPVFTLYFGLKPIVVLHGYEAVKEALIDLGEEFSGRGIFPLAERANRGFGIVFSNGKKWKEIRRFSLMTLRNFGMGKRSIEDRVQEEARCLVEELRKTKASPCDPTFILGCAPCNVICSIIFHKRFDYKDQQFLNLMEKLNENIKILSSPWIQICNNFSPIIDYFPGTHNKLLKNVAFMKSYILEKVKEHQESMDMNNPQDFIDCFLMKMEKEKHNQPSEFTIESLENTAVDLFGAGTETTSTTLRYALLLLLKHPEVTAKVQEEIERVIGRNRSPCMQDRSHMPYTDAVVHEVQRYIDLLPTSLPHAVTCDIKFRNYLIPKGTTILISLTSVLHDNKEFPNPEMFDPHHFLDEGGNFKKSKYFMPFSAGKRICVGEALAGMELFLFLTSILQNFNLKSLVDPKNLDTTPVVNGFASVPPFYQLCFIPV
T4 sequence (P08684 whole entry): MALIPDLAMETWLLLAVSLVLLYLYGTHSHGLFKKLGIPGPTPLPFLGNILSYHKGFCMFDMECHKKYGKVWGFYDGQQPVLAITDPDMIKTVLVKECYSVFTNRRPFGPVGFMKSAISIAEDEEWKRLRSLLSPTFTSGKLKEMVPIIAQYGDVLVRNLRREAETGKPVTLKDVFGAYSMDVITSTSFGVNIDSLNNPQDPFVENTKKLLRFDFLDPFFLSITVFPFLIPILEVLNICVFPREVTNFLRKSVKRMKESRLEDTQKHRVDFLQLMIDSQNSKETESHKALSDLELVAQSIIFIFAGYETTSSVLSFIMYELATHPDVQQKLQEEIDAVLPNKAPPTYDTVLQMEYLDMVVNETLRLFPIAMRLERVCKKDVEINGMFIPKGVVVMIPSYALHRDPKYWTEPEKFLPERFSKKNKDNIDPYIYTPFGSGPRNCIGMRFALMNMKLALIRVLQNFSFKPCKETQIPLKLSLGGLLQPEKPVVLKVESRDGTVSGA
T5 sequence (P10635 whole entry): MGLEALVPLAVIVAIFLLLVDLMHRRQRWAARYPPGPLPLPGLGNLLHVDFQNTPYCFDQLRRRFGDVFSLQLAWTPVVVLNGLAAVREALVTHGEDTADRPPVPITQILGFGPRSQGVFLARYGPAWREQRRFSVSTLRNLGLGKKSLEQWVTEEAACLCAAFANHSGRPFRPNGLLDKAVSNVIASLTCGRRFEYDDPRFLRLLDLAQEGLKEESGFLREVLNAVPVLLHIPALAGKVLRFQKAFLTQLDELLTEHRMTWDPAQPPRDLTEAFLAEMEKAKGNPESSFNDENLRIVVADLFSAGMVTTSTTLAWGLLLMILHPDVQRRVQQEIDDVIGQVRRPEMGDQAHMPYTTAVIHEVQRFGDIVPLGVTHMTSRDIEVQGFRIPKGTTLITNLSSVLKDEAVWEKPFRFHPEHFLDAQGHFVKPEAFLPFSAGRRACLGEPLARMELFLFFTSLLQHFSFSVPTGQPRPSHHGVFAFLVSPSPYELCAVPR

In the case of `CCCN(CCC)C(=O)C1=Cc2ccc(-c3ccc(C(=O)N4CCCC4)cc3)cc2N=C(N)C1` [Motolimod, motolimod], the bioavailability in “in vivo [1]” is 57.4%. In addition, in the data set “in vivo [1]” (iv, 2.5 mg/kg), the Vd was 18.6 L/kg and the clearance is 45.5 mL/min/kg. Further, in the data set “in vivo [1]” (sc, 10 mg/kg), the AUC(0-inf) came to 2130 ng·h/mL, the AUC(0-t) came out at 2130 ng·h/mL, the Cmax came out at 720 ng/mL and the Tmax turned out to be 1.17 h. Further, the half-life in the data set “in vivo [1]” (sc, 10 mg/kg) is 0.92 h. Also, in the data set “in vivo [2]”, the AUC(0-inf) was found to be 270 ng·h/mL, the AUC(0-t) amounted to 270 ng·h/mL, the peak level (Cmax) was 80 ng/mL and the MRT inf is 2.95 h. Further, in the data set “in vivo [2]”, the Tmax was 2 h and the half-life is 1.43 h. The IC50 against CYP 2C19 was above 10 µM. Besides, the IC50 against CYP 2C9 is above 10 µM. Further, the IC50 at CYP 1A2 was above 10 µM. The same compound returned an IC50 on CYP 3A4 above 10 µM. For the same compound, on CYP 2D6, the IC50 is above 10 µM. The same compound displayed an EC50 at hTLR4 above 50 µM. Further, the CC50 at 24 h in [3] is above 50 µM.

These data come from paper PMC8607422, “Development of a novel TLR8 agonist for cancer immunotherapy” (Molecular Biomedicine, 2020).
